In US10858307B2, “Compositions and methods for treating liver cancer” (Golden Biotechnology Corporation, priority 2016, dated 2020):
Converted amounts (≈) assume the structure as drawn.

Key:
[1] = system: Human hepatoma cell lines (HepG2); assay: MTT cell viability assay; format: cell-based; conditions: for IC50: Homo sapiens, HepG2 cells, 48 h exposure; for inhibition against liver cancer cells compared to Compound S: versus Compound S
Source text: The MTT (3-(4, 5-dimethylthiazol-2-yl)-2,5-diphenyl tetrazolium bromide) cell viability assay is a colorimetric assay system, which measures the reduction of a tetrazolium component (MTT) into an insoluble blue/purple colored formazan product by succinate tetrazolium reductase in mitochondria of viable cells. The absorbance of the complex is read spectrophotometrically and is directly proportional to the number of live or viable cells. Formazan formation can therefore be used to assess and determine the survival rate of cells.
Human hepatoma cell lines (HepG2) were obtained from American Type Culture Collection (Rockville, Md., USA) and cultured in Minimum Essential Medium Alpha (Invitrogen/Gibco BRL, Grand Island, N.Y., USA) at 37° C. in 5% CO2 in culture media supplemented with 10% fetal bovine serum (FBS) (Invitrogen/Gibco BRL) and 100 U/ml streptomycin and penicillin (Invitrogen/Gibco BRL).
100 μL of HepG2 cells (1×10^4 cells per well) were seeded in 96 well plates and pre-incubated. After 24 h, the cells were exposed to various concentrations of Compounds 1-11, and the known compound 4-hydroxy-2,3-dimethoxy-6-methyl-5-(3,7,11-trimethyldodeca-2,6,10-trienyl)cyclohex-2-enone (Compound S) in a volume of 200 μL for 48 h. 20 μL of MTT reagent (5 mg/mL) was added to each well and then incubated in 5% CO2 at 37° C. for 4 h. The media was replaced with 200 μL of DMSO to dissolve the MTT tetrazolium crystal. Absorbance was measured at 570 nm using a microplate reader.

Human HCC Mahlavu cells = assay: Efficacy test on liver cancer xenograft model; format: in vivo, nude mice
Protocol: […] nude mice (National Laboratory Animal Center) of four to six weeks old were used and maintained in laminar flow cabinets under pathogen-free condition. Human HCC Mahlavu cells (1×10^6 cells) carrying luciferase gene were re-suspended in 20 μL of PBS containing 50% matrigel (BD Biosciences, MA) and injected into the left lateral liver lobe of athymic nude mice (National Laboratory Animal Center) with 27-gauge needle by sterile techniques (Lu et al., 2007). For bioluminescence imaging, the animals were injected with the luciferase substrate D-luciferin at a dose of 150 mg/kg in 0.2 mL sterile isotonic saline.
Tumor growth and metastatic status was monitored using the Xenogen […] (IVIS) imaging system every two weeks. All images were obtained after intraperitoneal injection of luciferin (100 mg/kg body weight; Synchem, Elk Grove Village, Ill., United States). […] Image analysis and bioluminescence quantification were performed using Living Image software (Caliper Life Sciences, Hopkinton, Mass., United States). […] The body weight was measured twice weekly.
The tumor-bearing mice were treated with vehicle (olive oil) or Compound 1 at 120 mg/kg by oral gavage twice per day and 5 days per week for 4 weeks. The tumor volume was measured twice weekly. ***P<0.005 compared to vehicle control. […]

SMILES	IC50 [1] [µg/mL]	inhibition against liver cancer cells compared to Compound S [1]	tumor size (Human HCC Mahlavu cells; 120 mg/kg oral gavage twice per day, 5 days per week for 4 weeks, P<0.005 compared to vehicle control)	decrease of tumor mass compared with control (Human HCC Mahlavu cells; 120 mg/kg oral gavage, at the end of week 12)
COC1=C(NCCc2c[nH]c3ccccc23)[C@@H](O)[C@@H](C/C=C(\C)CC/C=C(\C)CCC=C(C)C)[C@H](C)C1=O [Compound 11]	2.29 (≈ 4.41 µM)			
COC1=C(N(C)C)[C@@H](O)[C@@H](C/C=C(\C)CC/C=C(\C)CCC=C(C)C)[C@H](C)C1=O [Compound 4]	0.18 (≈ 0.446 µM)	much better unexpected inhibition		
COC1=C(OC)C(O)C(CC=C(C)CCC=C(C)CCC=C(C)C)C(C)C1=O (stereo not shown) [Compound S, 4-hydroxy-2,3-dimethoxy-6-methyl-5-(3,7,11-trimethyldodeca-2,6,10-trienyl)cyclohex-2-enone, reference compound]	2.4 (≈ 6.14 µM)			

More lines, main results first:

IC50 [1] [µg/mL]	SMILES	inhibition against liver cancer cells compared to Compound S [1]	tumor size (Human HCC Mahlavu cells; 120 mg/kg oral gavage twice per day, 5 days per week for 4 weeks, P<0.005 compared to vehicle control)	decrease of tumor mass compared with control (Human HCC Mahlavu cells; 120 mg/kg oral gavage, at the end of week 12)
0.91 (≈ 1.93 µM)	COC1=C(NCc2cccs2)[C@@H](O)[C@@H](C/C=C(\C)CC/C=C(\C)CCC=C(C)C)[C@H](C)C1=O [Compound 10]	much better unexpected inhibition		
0.87 (≈ 2.01 µM)	COC1=C(NCCCN)[C@@H](O)[C@@H](C/C=C(\C)CC/C=C(\C)CCC=C(C)C)[C@H](C)C1=O [Compound 5]	much better unexpected inhibition		
0.13 (≈ 0.346 µM)	COC1=C(N)[C@@H](O)[C@@H](C/C=C(\C)CC/C=C(\C)CCC=C(C)C)[C@H](C)C1=O [Compound 1, (4S,5S,6S)-3-amino-4-hydroxy-2-methoxy-6-methyl-5-((2E,6E)-3,7,11-trimethyldodeca-2,6,10-trien-1-yl)cyclohex-2-enone]	much better unexpected inhibition	decrease of the tumor size	at least 4 folds
1.95 (≈ 4.65 µM)	COC1=C(NCCO)[C@@H](O)[C@@H](C/C=C(\C)CC/C=C(\C)CCC=C(C)C)[C@H](C)C1=O [Compound 7]			
